Data published in patent EP4230620A1, “SUBSTITUTED N-AMINO-N-BENZOIC ACID URACILS, THEIR SALTS AND USE OF SAID COMPOUNDS AS HERBICIDAL AGENTS” (Bayer Aktiengesellschaft, priority 2022, dated 2023).

How the values were obtained:
Format in all cases: in vivo
Abutilon theophrasti = assay: Post-emergence herbicidal action in greenhouse against ABUTH; conditions: post-emergence spray, 600 l/ha water, visual rating after ca. 3 weeks vs untreated controls, 100% = plants dead, 0% = like control plants
Description: (§1) Biologische Beispiele: • Die folgenden Abkürzungen werden für die in den folgenden Tabellen aufgeführten Kultur- und Schadpflanzen verwendet: ABUTH: Abutilon theophrasti ALOMY: Alopecurus myosuroides AMARE: Amaranthus retroflexus BRSNS: Brassica napus DIGSA: Digitaria sanguinalis ECHCG: Echinochloa crus-galli GLXMA: Glycine max KCHSC: Kochia scoparia LOLRI: Lolium rigidum MATIN: Matricaria inodora ORYZA: Oryza sativa PHPBU: Pharbitis purpurea POLCO: Polygonum convolvulus SETVI: Setaria viridis VERPE: Veronica persica VIOTR: Viola tricolor TRZAS: Triticum aestivum ZEAMX: Zea mays • A. Herbizide Wirkung im Nachauflauf
(§2) Samen von mono- bzw. dikotylen Unkrautpflanzen wurden in Kunststoff- oder Holzfasertöpfen in sandigem Lehmboden ausgelegt, mit Erde abgedeckt und im Gewächshaus unter kontrollierten Wachstumsbedingungen angezogen. 2 bis 3 Wochen nach der Aussaat wurden die Versuchspflanzen im Einblattstadium behandelt. Die in Form von benetzbaren Pulvern (WP) oder als Emulsionskonzentrate (EC) formulierten erfindungsgemäßen Verbindungen wurden dann als wässrige Suspension bzw. Emulsion unter Zusatz von 0,5% Additiv mit einer Wasseraufwandmenge von umgerechnet 600 l/ha auf die grünen Pflanzenteile gesprüht. Nach ca. 3 Wochen Standzeit der Versuchspflanzen im Gewächshaus, unter optimalen Wachstumsbedingungen, wurde die Wirkung der Präparate visuell im Vergleich zu unbehandelten Kontrollen bonitiert. Beispielsweise bedeutet 100% Wirkung = Pflanzen sind abgestorben, 0% Wirkung = wie Kontrollpflanzen.
(§3) In den nachstehenden Tabellen A1 bis A11 sind die Wirkungen ausgewählter Verbindungen der allgemeinen Formel (I) gemäß der Tabelle 1 auf verschiedene Schadpflanzen und einer Aufwandmenge entsprechend 20 g/ha und niedriger, die gemäß zuvor genannter Versuchsvorschrift erhalten wurden, dargestellt. Tabelle A1a: Nachauflaufwirkung bei 1,25 g/ha gegen ABUTH in %

Alopecurus myosuroides = assay: Post-emergence herbicidal action in greenhouse against ALOMY; conditions: 20 g/ha; post-emergence spray, 600 l/ha water; visual rating after ca. 3 weeks vs untreated controls; 100% = plants dead, 0% = like control plants
Description: as §1, §2, §3

Amaranthus retroflexus = assay: Post-emergence herbicidal action in greenhouse against AMARE; conditions: post-emergence spray, 600 l/ha water, visual rating after ca. 3 weeks vs untreated controls, 100% = plants dead, 0% = like control plants
Description: as §1, §2, §3

Digitaria sanguinalis = assay: Post-emergence herbicidal action in greenhouse against DIGSA; conditions: visual rating after ca. 3 weeks
Description: as §1, §2, §3

Matricaria inodora = assay: Post-emergence herbicidal action in greenhouse against MATIN; conditions: visual rating after ca. 3 weeks
Description: as §1, §2, §3

Pharbitis purpurea = assay: Post-emergence herbicidal action in greenhouse against PHBPU; conditions: visual rating after ca. 3 weeks
Description: as §1, §2, §3

Polygonum convolvulus = assay: Post-emergence herbicidal action in greenhouse against POLCO; conditions: visual rating after ca. 3 weeks
Description: as §1, §2, §3

Setaria viridis = assay: Post-emergence herbicidal action in greenhouse against SETVI; conditions: visual rating after ca. 3 weeks
Description: as §1, §2, §3

Veronica persica = assay: Post-emergence herbicidal action in greenhouse against VERPE; conditions: visual rating after ca. 3 weeks
Description: as §1, §2, §3

Viola tricolor = assay: Post-emergence herbicidal action in greenhouse against VIOTR; conditions: visual rating after ca. 3 weeks
Description: as §1, §2, §3

Triticum aestivum = assay: Post-emergence action on crop plants in greenhouse, TRZAS; conditions: crop plant, visual rating after ca. 3 weeks, 100% = plants dead, 0% = like control plants
Description: as §1
as §2, with “Kulturpflanzen” for “Unkrautpflanzen”
(§4) In den nachstehenden Tabellen B1 bis B4 sind die Wirkungen ausgewählter Verbindungen der allgemeinen Formel (I) gemäß der Tabelle 1 auf verschiedene Kulturpflanzen und einer Aufwandmenge entsprechend 20 g/ha und niedriger, die gemäß zuvor genannter Versuchsvorschrift erhalten wurden, dargestellt. Tabelle B1a: Nachauflaufwirkung bei 1,25 g/ha gegen ZEAMX in %

Oryza sativa = assay: Post-emergence action on crop plants in greenhouse, ORYZA; conditions: crop plant, visual rating after ca. 3 weeks, 100% = plants dead, 0% = like control plants
Description: as §1
as §2, with “Kulturpflanzen” for “Unkrautpflanzen”
as §4

Zea mays = assay: Post-emergence action on crop plants in greenhouse, ZEAMX; conditions: 1,25 g/ha, crop plant, post-emergence, visual rating after ca. 3 weeks; 100% = plants dead, 0% = like control plants
Description: as §1
as §2, with “Kulturpflanzen” for “Unkrautpflanzen”
as §4

Compound | Nachauflaufwirkung gegen ABUTH (Abutilon theophrasti; 5 g/ha) [%] | Nachauflaufwirkung gegen ABUTH (Abutilon theophrasti; 20 g/ha) [%] | Nachauflaufwirkung gegen AMARE (Amaranthus retroflexus; 1,25 g/ha) [%] | Nachauflaufwirkung gegen AMARE (Amaranthus retroflexus; 5 g/ha) [%] | Nachauflaufwirkung gegen AMARE (Amaranthus retroflexus; 20 g/ha) [%] | Nachauflaufwirkung gegen DIGSA (Digitaria sanguinalis; 20 g/ha) [%] | Nachauflaufwirkung gegen MATIN (Matricaria inodora; 20 g/ha) [%] | Nachauflaufwirkung gegen PHBPU (Pharbitis purpurea; 1,25 g/ha) [%] | Nachauflaufwirkung gegen PHBPU (Pharbitis purpurea; 5 g/ha) [%] | Nachauflaufwirkung gegen PHBPU (Pharbitis purpurea; 20 g/ha) [%] | Nachauflaufwirkung gegen POLCO (Polygonum convolvulus; 20 g/ha) [%] | Nachauflaufwirkung gegen SETVI (Setaria viridis; 20 g/ha) [%] | Nachauflaufwirkung gegen VERPE (Veronica persica; 5 g/ha) [%] | Nachauflaufwirkung gegen VERPE (Veronica persica; 20 g/ha) [%] | Nachauflaufwirkung gegen VIOTR (Viola tricolor; 1,25 g/ha) [%] | Nachauflaufwirkung gegen VIOTR (Viola tricolor; 5 g/ha) [%] | Nachauflaufwirkung gegen VIOTR (Viola tricolor; 20 g/ha) [%] | Nachauflaufwirkung gegen TRZAS (Triticum aestivum; 1,25 g/ha) [%] | Nachauflaufwirkung gegen TRZAS (Triticum aestivum; 5 g/ha) [%] | Nachauflaufwirkung gegen ORYZA (Oryza sativa; 1,25 g/ha) [%] | further results
C=CCOC(=O)C(C)(C)OC(=O)c1cc(-n2c(=O)cc(C(F)(F)F)n(N)c2=O)c(F)cc1Cl [I.1-471, 1-(Allyloxy)-2-methyl-1-oxopropan-2-yl-5-[3-amino-2,6-dioxo-4-(trifluormethyl)-3,6-dihydropyrimidin-1(2H)-yl]-2-chlor-4-fluorbenzoat] | 100 | 100 | 100 | 100 | 100 | 100 | 100 | 100 | 100 | 100 | 100 | 100 | 100 | 100 | 90 | 100 | 100 | 0 | 20 | 0 | Nachauflaufwirkung gegen ABUTH (Abutilon theophrasti; 1,25 g/ha): 100%; Nachauflaufwirkung gegen ALOMY (Alopecurus myosuroides): 100%; Nachauflaufwirkung gegen DIGSA (Digitaria sanguinalis; 5 g/ha): 100%; Nachauflaufwirkung gegen MATIN (Matricaria inodora; 5 g/ha): 100%; Nachauflaufwirkung gegen POLCO (Polygonum convolvulus; 5 g/ha): 100%; Nachauflaufwirkung gegen SETVI (Setaria viridis; 1,25 g/ha): 100%; Nachauflaufwirkung gegen SETVI (Setaria viridis; 5 g/ha): 100%; Nachauflaufwirkung gegen VERPE (Veronica persica; 1,25 g/ha): 100%
COCCOC(=O)C(C)(C)OC(=O)c1cc(-n2c(=O)cc(C(F)(F)F)n(N)c2=O)ccc1Cl [I.2-1] | 100 | 100 | 100 | 100 | 100 | 100 | 100 | 80 | 90 | 100 | 100 | 100 | 100 | 100 | 90 | 100 | 100 | 0 | 0 | 0 | Nachauflaufwirkung gegen ABUTH (Abutilon theophrasti; 1,25 g/ha): 90%; Nachauflaufwirkung gegen ALOMY (Alopecurus myosuroides): 80%; Nachauflaufwirkung gegen MATIN (Matricaria inodora; 5 g/ha): 90%; Nachauflaufwirkung gegen SETVI (Setaria viridis; 1,25 g/ha): 100%; Nachauflaufwirkung gegen SETVI (Setaria viridis; 5 g/ha): 100%; Nachauflaufwirkung gegen VERPE (Veronica persica; 1,25 g/ha): 80%; Nachauflaufwirkung gegen TRZAS (Triticum aestivum; 20 g/ha): 10%; Nachauflaufwirkung gegen ORYZA (Oryza sativa; 5 g/ha): 0%
CC(C)(OC(=O)c1cc(-n2c(=O)cc(C(F)(F)F)n(N)c2=O)ccc1Cl)C(=O)OCC#N [I.2-176, 1-(Cyanmethoxy)-2-methyl-1-oxopropan-2-yl-5-[3-amino-2,6-dioxo-4-(trifluormethyl)-3,6-dihydropyrimidin-1(2H)-yl]-2-chlorbenzoat] | 100 | 100 | 100 | 100 | 100 | 100 | 80 | 90 | 100 | 100 | 100 | 100 | 90 | 100 | 80 | 100 | 100 | 0 | 0 | 0 | Nachauflaufwirkung gegen ABUTH (Abutilon theophrasti; 1,25 g/ha): 80%; Nachauflaufwirkung gegen ZEAMX (Zea mays): 20%; Nachauflaufwirkung gegen ORYZA (Oryza sativa; 5 g/ha): 20%
CC(C)=NOC(=O)C(C)(C)OC(=O)c1cc(-n2c(=O)cc(C(F)(F)F)n(N)c2=O)ccc1Cl [I.2-491] | 100 | 100 | 80 | 100 | 100 | 100 | 100 | 90 | 100 | 100 | 100 | 100 | 100 | 100 | 80 | 100 | 100 | 0 | 0 | 0 | Nachauflaufwirkung gegen DIGSA (Digitaria sanguinalis; 5 g/ha): 100%; Nachauflaufwirkung gegen MATIN (Matricaria inodora; 5 g/ha): 80%; Nachauflaufwirkung gegen SETVI (Setaria viridis; 1,25 g/ha): 90%; Nachauflaufwirkung gegen SETVI (Setaria viridis; 5 g/ha): 100%; Nachauflaufwirkung gegen TRZAS (Triticum aestivum; 20 g/ha): 20%; Nachauflaufwirkung gegen ORYZA (Oryza sativa; 5 g/ha): 0%
